Data taken from patent US11246866B2, “Solid pharmaceutical compositions for treating HCV” (AbbVie Inc., priority 2015, dated 2022).

Experiment: Single-dose crossover bioavailability study of Compound 1/Compound 2 mini-tablets
Assay type: in vivo, human
Details: for t1/2: Compound 1, fasting, harmonic mean, N = 14; for effect of administration with food on bioavailability: co-formulated mini-tablets, solid dispersion form, with food vs fasting
Protocol: In comparison, when administered with food, the mini-tablets provided an AUC that was only 5% lower than that provided by the regular tablets. […] All of the reference AUCs of the regular tablets were measured under fasting conditions. 14 subjects were enrolled in this study and dosed with co-formulated Compound 1/Compound 2 in mini-tablets. One subject spilled 4 mini-tablets (out of 100-150 total mini-tablets) during dosing of Period 2 (Regimen G) and was not excluded from the analysis. The mini-tablets were prepared according to a process similar to that described in Example 2. [table] [table]

Row | SMILES | t1/2 (Regimen F: mini-tablets 200 mg/120 mg) [h] | t1/2 (Regimen J: two 100 mg Compound 1 tablets and three 40 mg Compound 2 tablets) [h] | effect of administration with food on bioavailability | AUC lower than that provided by regular tablets (mini-tablets containing 200 mg Compound 1, with food, vs two regular tablets under fasting conditions) [%] | AUC lower than that provided by regular tablets (mini-tablets containing 200 mg Compound 1, without food, vs two regular tablets (same amount, same solid dispersion) under fasting conditions) [%] | AUC higher than that provided by regular tablets (mini-tablets containing 120 mg Compound 2, with food, vs three regular tablets under fasting conditions) [%] | AUC lower than that provided by regular tablets (mini-tablets containing 120 mg Compound 2, without food, vs three regular tablets under fasting conditions) [%]
1 | CC(C)(C)[C@@H]1NC(=O)O[C@@H]2CCC[C@H]2OC/C=C/C(F)(F)c2nc3ccccc3nc2O[C@@H]2C[C@@H](C(=O)N[C@]3(C(=O)NS(=O)(=O)C4(C)CC4)C[C@H]3C(F)F)N(C2)C1=O [Compound 1] | 5.61 | 5.93 | significantly increase | 5 | 41 | – | –
2 | COC(=O)N[C@H](C(=O)N1CCC[C@H]1c1nc2cc([C@H]3CC[C@H](c4cc5nc([C@@H]6CCCN6C(=O)[C@@H](NC(=O)OC)[C@@H](C)OC)[nH]c5cc4F)N3c3cc(F)c(N4CCC(c5ccc(F)cc5)CC4)c(F)c3)c(F)cc2[nH]1)[C@@H](C)OC [Compound 2] | – | – | significantly increase | – | – | 6 | 28
